Assay [1] has as its target T1, human progesterone receptor A (Homo sapiens, UniProt P06401).
T1 construct: expressed in transfected cells; host or cells: SK-N-MC human neuroblastoma cells, stably transfected with pRChPR-A-neo and pMMTV-LUC
T1 sequence (P06401 1-769 isoform P06401-2): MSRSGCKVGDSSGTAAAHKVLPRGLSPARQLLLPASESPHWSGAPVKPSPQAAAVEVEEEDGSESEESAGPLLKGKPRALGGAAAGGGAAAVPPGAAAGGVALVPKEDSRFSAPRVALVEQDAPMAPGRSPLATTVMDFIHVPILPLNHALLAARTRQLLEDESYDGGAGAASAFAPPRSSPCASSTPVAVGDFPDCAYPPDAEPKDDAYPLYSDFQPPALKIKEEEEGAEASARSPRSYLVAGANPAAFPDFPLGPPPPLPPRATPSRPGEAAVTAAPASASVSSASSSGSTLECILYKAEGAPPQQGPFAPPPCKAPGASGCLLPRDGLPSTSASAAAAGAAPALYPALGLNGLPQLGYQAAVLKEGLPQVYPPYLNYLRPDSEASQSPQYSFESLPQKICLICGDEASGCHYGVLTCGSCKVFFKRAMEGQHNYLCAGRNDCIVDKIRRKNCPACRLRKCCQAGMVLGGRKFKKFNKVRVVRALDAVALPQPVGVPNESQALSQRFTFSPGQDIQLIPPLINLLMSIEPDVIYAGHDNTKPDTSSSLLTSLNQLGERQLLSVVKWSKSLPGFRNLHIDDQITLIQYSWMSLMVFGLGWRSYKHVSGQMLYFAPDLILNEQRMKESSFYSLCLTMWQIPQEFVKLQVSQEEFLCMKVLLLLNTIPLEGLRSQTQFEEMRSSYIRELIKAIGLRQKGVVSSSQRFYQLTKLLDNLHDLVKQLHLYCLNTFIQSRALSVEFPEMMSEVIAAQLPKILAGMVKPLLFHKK
Briefly: Progesterone receptor-antagonistic action in stably transfected SK-N-MC cells, MMTV-LUC reporter (PR-A). The format is cell-based. To be noted: antagonistic potency vs 0.1 nmol/l promegestone, 24 hours. As to the method: (§1) Progesterone Receptor-Antagonistic Action in Stable Transfectants of Human Neuroblastoma Cells (SK-N-MC Cells) with the Human Progesterone A or Progesterone B Receptor and an MN-LUC Reporter Construct
(§2) SK-N-MC cells (human neuroblastoma cells) which have been stably transfected with plasmids expressing the human progesterone receptor B (pRChPR-B-neo) or the human progesterone receptor A (pRChPR-A-neo) and a reporter construct (pMMTV-LUC) were incubated for 24 hours either in the absence (negative control) or in the presence of ascending amounts of the particular test compound (0.01 nmol/l, 0.1 nmol/l, 1 nmol/l, 10 nmol/l, 100 nmol/l and […]), in order to determine the agonistic efficacy. As a positive control of the reporter gene induction, the cells were treated with the synthetic gestagen promegestone (0.01 nmol/l, 0.1 nmol/l, 1 nmol/l, 10 nmol/l, 100 nmol/l and […]). To determine the antagonistic activity, the cells were treated with 0.1 nmol/l promegestone and additionally with ascending amounts of the particular test compound (0.01 nmol/l, 0.1 nmol/l, 1 nmol/l, 10 nmol/l, 100 nmol/l and […]). The activity of the reporter gene LUC (LUC=luciferase) was determined in the cell lysates and measured as RLU (relative light units). All measurements are reported as % efficacy and as EC50 and IC50 concentrations.

In assay [2] the target is T2, human progesterone receptor B (Homo sapiens, UniProt P06401).
T2 construct: expressed in transfected cells; host or cells: SK-N-MC human neuroblastoma cells, stably transfected with pRChPR-B-neo and pMMTV-LUC
T2 sequence (P06401 1-933): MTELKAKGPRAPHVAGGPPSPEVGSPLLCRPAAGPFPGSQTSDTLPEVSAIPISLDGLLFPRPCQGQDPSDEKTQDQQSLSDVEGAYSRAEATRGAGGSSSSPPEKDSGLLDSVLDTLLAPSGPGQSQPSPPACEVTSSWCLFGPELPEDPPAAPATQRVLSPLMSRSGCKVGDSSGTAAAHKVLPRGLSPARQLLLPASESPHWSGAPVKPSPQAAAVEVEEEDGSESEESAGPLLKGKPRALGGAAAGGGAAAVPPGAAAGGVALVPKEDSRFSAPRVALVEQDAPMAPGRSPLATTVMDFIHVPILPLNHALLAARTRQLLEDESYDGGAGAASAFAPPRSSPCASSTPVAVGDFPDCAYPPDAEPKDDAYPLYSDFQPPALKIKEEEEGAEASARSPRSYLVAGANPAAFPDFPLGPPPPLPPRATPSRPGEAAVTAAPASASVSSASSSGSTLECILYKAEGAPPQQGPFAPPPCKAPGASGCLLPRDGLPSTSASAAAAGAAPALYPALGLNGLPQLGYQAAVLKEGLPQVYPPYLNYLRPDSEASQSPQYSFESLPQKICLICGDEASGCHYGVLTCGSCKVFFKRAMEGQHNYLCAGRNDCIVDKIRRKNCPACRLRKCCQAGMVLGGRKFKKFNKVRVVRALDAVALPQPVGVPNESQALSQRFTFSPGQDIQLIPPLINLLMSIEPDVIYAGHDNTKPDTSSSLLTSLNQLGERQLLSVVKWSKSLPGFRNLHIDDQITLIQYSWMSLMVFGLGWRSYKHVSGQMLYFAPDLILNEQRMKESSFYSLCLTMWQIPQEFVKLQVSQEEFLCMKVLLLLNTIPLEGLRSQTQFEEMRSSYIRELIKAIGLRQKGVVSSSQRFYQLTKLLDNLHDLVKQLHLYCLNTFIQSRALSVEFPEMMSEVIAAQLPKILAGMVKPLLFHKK
The assay can be described thus: Progesterone receptor-antagonistic action in stably transfected SK-N-MC cells, MMTV-LUC reporter (PR-B). The class given is cell-based. To be noted: antagonistic potency vs 0.1 nmol/l promegestone, 24 hours. As to the method: as §1, §2

The term IC50 denotes the concentration at which inhibition is half-maximal. As to `COc1ccc(NC(=O)NCc2ccc([C@H]3C[C@@]4(C)[C@@H](CC[C@@]4(O)C(F)(F)C(F)(F)F)[C@@H]4CCC5=CC(=O)CCC5=C43)cc2)cc1` [Example 32, 1-[4-((8S,11R,13S,14S,17S)-17-hydroxy-13-methyl-3-oxo-17-pentafluoroethyl-2,3,6,7,8,11,12,13,14,15,16,17-dodecahydro-1H-cyclopenta[a]phenanthren-11-yl)benzyl]-3-(4-methoxyphenyl)urea], the 50% inhibitory concentration (IC50) in assay [1] came to 100 pM; in assay [2] it was 200 pM.
For `C[C@]12C[C@H](c3ccc(COC(=O)NCc4ccccc4)cc3)C3=C4CCC(=O)C=C4CC[C@H]3[C@@H]1CC[C@@]2(O)C(F)(F)C(F)(F)F` [Example 56, benzylcarbamic acid 4-((8S,11R,13S,14S,17S)-17-hydroxy-13-methyl-3-oxo-17-pentafluoroethyl-2,3,6,7,8,11,12,13,14,15,16,17-dodecahydro-1H-cyclopenta[a]phenanthren-11-yl)benzyl ester] the same measures were 200 pM and 300 pM.
For `C=CCNC(=O)OCc1ccc([C@H]2C[C@@]3(C)[C@@H](CC[C@@]3(O)C(F)(F)C(F)(F)F)[C@@H]3CCC4=CC(=O)CCC4=C32)cc1` [Example 43, allylcarbamic acid 4-((8S,11R,13S,14S,17S)-17-hydroxy-13-methyl-3-oxo-17-pentafluoroethyl-2,3,6,7,8,11,12,13,14,15,16,17-dodecahydro-1H-cyclopenta[a]phenanthren-11-yl)benzyl ester], the IC50 in assay [1] and in assay [2] was 100 pM in each case.
As to `CC1(c2cccc([C@H]3C[C@@]4(C)[C@@H](CC[C@@]4(O)C(F)(F)C(F)(F)F)[C@@H]4CCC5=CC(=O)CCC5=C43)c2)CC1` [Example 13, (8S,11R,13S,14S,17S)-17-hydroxy-13-methyl-11-[3-(1-methylcyclopropyl)phenyl]-17-pentafluoroethyl-1,2,6,7,8,11,12,13,14,15,16,17-dodecahydrocyclopenta[a]phenanthren-3-one], the IC50 is 4000 pM in assay [1] and 7000 pM in assay [2].
For `C[C@]12C[C@H](c3ccc(C4CC4)cc3)C3=C4CCC(=O)C=C4CC[C@H]3[C@@H]1CC[C@@]2(O)C(F)(F)C(F)(F)F` [Example 1, (8S,11R,13S,14S,17S)-11-(4-cyclopropylphenyl)-17-hydroxy-13-methyl-17-pentafluoroethyl-1,2,6,7,8,11,12,13,14,15,16,17-dodecahydrocyclopenta[a]phenanthren-3-one] the same measures were below 1 pM and 4 pM.
The like results for `CC(O)c1cccc([C@H]2C[C@@]3(C)C(CC[C@@]3(O)C(F)(F)C(F)(F)F)C3CCC4=CC(=O)CCC4=C32)c1` (mixture of isomers) [Example 11, (8S,11R,13S,14S,17S)-17-hydroxy-11-[3-((RS)-1-hydroxyethyl)phenyl]-13-methyl-17-pentafluoroethyl-1,2,6,7,8,11,12,13,14,15,16,17-dodecahydrocyclopenta[a]phenanthren-3-one] were, in that order, 2000 pM and 3000 pM.
In the case of `CCOC(=O)c1ccc(NC(=O)OCc2ccc([C@H]3C[C@@]4(C)[C@@H](CC[C@@]4(O)C(F)(F)C(F)(F)F)[C@@H]4CCC5=CC(=O)CCC5=C43)cc2)cc1` [Example 52, 4-[4-((8S,11R,13S,14S,17S)-17-hydroxy-13-methyl-3-oxo-17-pentafluoroethyl-2,3,6,7,8,11,12,13,14,15,16,17-dodecahydro-1H-cyclopenta[a]phenanthren-11-yl)benzyloxycarbonylamino]benzoic acid ethyl ester], the IC50 in assay [1] and in assay [2] was 100 pM each time.
`C[C@]12C[C@H](c3ccc(COC(=O)Nc4ccc(F)cc4)cc3)C3=C4CCC(=O)C=C4CC[C@H]3[C@@H]1CC[C@@]2(O)C(F)(F)C(F)(F)F` [Example 49, (4-fluorophenyl)carbamic acid 4-((8S,11R,13S,14S,17S)-17-hydroxy-13-methyl-3-oxo-17-pentafluoroethyl-2,3,6,7,8,11,12,13,14,15,16,17-dodecahydro-1H-cyclopenta[a]phenanthren-11-yl)benzyl ester]: the figures for the IC50 in assay [1] and in assay [2] were 90 pM and 100 pM, respectively.
The like results for `C[C@]12C[C@H](c3cccc(CCO)c3)C3=C4CCC(=O)C=C4CC[C@H]3[C@@H]1CC[C@@]2(O)C(F)(F)C(F)(F)F` [Example 14, (8S,11R,13S,14S,17S)-17-hydroxy-11-[3-(2-hydroxyethyl)phenyl]-13-methyl-17-pentafluoroethyl-1,2,6,7,8,11,12,13,14,15,16,17-dodecahydrocyclopenta[a]phenanthren-3-one] were, in that order, 1000 pM and 1000 pM.
For `C[C@]12C[C@H](c3ccc(COC(=O)NCCC(=O)O)cc3)C3=C4CCC(=O)C=C4CC[C@H]3[C@@H]1CC[C@@]2(O)C(F)(F)C(F)(F)F` [Example 55, 3-[4-((8S,11R,13S,14S,17S)-17-hydroxy-13-methyl-3-oxo-17-pentafluoroethyl-2,3,6,7,8,11,12,13,14,15,16,17-dodecahydro-1H-cyclopenta[a]phenanthren-11-yl)benzyloxycarbonylamino]propionic acid] the same measures were 8000 pM and 10000 pM.
Consider `CC(C)NC(=O)NCc1ccc([C@H]2C[C@@]3(C)[C@@H](CC[C@@]3(O)C(F)(F)C(F)(F)F)[C@@H]3CCC4=CC(=O)CCC4=C32)cc1` [Example 19, 1-isopropyl-3-[4-((8S,11R,13S,14S,17S)-17-hydroxy-13-methyl-3-oxo-17-pentafluoroethyl-2,3,6,7,8,11,12,13,14,15,16,17-dodecahydro-1H-cyclopenta[a]phenanthren-11-yl)benzyl]urea], for which the figures for the half-maximal inhibitory concentration (IC50) in assay [1] and in assay [2] were 600 pM and 700 pM, respectively.
For `C[C@]12C[C@H](c3cccc(C4CC4)c3)C3=C4CCC(=O)C=C4CC[C@H]3[C@@H]1CC[C@@]2(O)C(F)(F)C(F)(F)F` [Example 12, (8S,11R,13S,14S,17S)-11-(3-cyclopropylphenyl)-17-hydroxy-13-methyl-17-pentafluoroethyl-1,2,6,7,8,11,12,13,14,15,16,17-dodecahydrocyclopenta[a]phenanthren-3-one] the same measures were 4000 pM and 9000 pM.

The record behind these values is US9206219B2, “17-hydroxy-17-pentafluorethyl-estra-4,9(10)-dien-11-aryl derivatives, methods for the production thereof and the use thereof for treating diseases” (Bayer Intellectual Property GmbH, priority 2009, dated 2015).
